# From ChEMBL document CHEMBL1145498, “A systematic interaction map of validated kinase inhibitors with Ser/Thr kinases” (Proc Natl Acad Sci U S A, 2007)
# Biological target: Serine/threonine-protein kinase VRK2 (Homo sapiens) (UniProt Q86Y07)
# Sequence (Q86Y07 whole entry): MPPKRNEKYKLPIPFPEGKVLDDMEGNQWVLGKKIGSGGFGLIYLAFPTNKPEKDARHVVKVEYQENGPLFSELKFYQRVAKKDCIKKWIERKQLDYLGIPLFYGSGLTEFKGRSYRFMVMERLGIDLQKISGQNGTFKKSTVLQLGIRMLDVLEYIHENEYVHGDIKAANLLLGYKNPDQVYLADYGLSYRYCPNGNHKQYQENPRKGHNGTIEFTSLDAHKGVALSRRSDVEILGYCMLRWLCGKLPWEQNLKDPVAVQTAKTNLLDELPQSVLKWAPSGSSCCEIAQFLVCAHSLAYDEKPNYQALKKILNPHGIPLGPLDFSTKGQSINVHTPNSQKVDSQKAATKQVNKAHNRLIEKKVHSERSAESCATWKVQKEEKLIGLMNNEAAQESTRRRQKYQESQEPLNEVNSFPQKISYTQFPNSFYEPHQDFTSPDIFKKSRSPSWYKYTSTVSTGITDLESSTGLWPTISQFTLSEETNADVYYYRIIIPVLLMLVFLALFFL
row,SMILES,ΔTm [°C]
1,Brc1c(Br)c(Br)c2[nH]nnc2c1Br [TETRABROMOBENZOTRIAZOLE],-0.5
2,Cn1cnc2c(NCc3ccccc3)nc(NCCO)nc21 [OLOMOUCINE],0.2
3,O=C1Cc2c([nH]c3ccc(Br)cc23)-c2ccccc2N1 [KENPAULLONE],0.2
4,O=C1Nc2ccccc2/C1=C\c1ccc[nH]1,3.4

# Biological target: T1, Calcium/calmodulin-dependent protein kinase type IV (Homo sapiens) (UniProt Q16566)
# T1 sequence (whole entry): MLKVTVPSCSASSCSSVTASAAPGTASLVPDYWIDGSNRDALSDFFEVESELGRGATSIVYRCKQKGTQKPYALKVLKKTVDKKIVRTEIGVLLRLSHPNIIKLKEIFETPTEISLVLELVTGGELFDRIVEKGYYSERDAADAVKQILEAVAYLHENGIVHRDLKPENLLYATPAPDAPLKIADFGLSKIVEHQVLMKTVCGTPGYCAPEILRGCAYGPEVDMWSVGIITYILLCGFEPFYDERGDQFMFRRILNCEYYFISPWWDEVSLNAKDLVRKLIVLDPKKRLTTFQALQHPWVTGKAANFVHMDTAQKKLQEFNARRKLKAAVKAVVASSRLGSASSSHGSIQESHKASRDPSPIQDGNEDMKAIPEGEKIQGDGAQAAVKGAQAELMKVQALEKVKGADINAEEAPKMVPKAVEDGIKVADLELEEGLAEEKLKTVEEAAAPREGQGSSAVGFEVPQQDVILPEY
row,SMILES,ΔTm [°C]
1,CN1CCc2[nH]c(=S)c(C#N)c(-c3cccs3)c2C1,1.9
2,CC(C)[C@H](CO)Nc1nc(Nc2cc(N)cc(Cl)c2)c2ncn(C(C)C)c2n1 [AMINOPURVALANOL],4.2
3,Brc1c(Br)c(Br)c2[nH]nnc2c1Br [TETRABROMOBENZOTRIAZOLE],0.4
4,Cn1cnc2c(NCc3ccccc3)nc(NCCO)nc21 [OLOMOUCINE],0.1
5,O=C1Cc2c([nH]c3ccc(Br)cc23)-c2ccccc2N1 [KENPAULLONE],0.3
6,O=C1Nc2ccccc2/C1=C\c1ccc[nH]1,0.6

# Biological target: Serine/threonine-protein kinase RIO2 (Homo sapiens) (UniProt Q9BVS4)
# Sequence (Q9BVS4 whole entry, looked up): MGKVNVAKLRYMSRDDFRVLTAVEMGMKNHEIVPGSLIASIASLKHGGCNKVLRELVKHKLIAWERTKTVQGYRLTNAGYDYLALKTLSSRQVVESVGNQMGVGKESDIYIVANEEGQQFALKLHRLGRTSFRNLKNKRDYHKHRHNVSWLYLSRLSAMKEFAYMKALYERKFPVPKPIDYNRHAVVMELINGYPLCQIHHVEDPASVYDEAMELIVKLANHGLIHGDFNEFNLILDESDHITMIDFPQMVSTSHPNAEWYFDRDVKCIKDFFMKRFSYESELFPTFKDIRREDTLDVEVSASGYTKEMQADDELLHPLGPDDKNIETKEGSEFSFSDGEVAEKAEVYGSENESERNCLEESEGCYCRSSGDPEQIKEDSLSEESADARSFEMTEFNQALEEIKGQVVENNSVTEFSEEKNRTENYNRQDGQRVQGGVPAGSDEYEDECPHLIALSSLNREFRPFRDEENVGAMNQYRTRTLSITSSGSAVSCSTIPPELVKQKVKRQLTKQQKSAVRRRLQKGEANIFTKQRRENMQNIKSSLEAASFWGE
row,SMILES,ΔTm [°C]
1,CN1CCc2[nH]c(=S)c(C#N)c(-c3cccs3)c2C1,0.3
2,CC(C)[C@H](CO)Nc1nc(Nc2cc(N)cc(Cl)c2)c2ncn(C(C)C)c2n1 [AMINOPURVALANOL],4.5
3,Brc1c(Br)c(Br)c2[nH]nnc2c1Br [TETRABROMOBENZOTRIAZOLE],3.1
4,Cn1cnc2c(NCc3ccccc3)nc(NCCO)nc21 [OLOMOUCINE],0.3
5,O=C1Cc2c([nH]c3ccc(Br)cc23)-c2ccccc2N1 [KENPAULLONE],1.8
6,O=C1Nc2ccccc2/C1=C\c1ccc[nH]1,3

# Biological target: Ribosomal protein S6 kinase alpha-3 (Homo sapiens) (UniProt P51812)
# Sequence (P51812 whole entry): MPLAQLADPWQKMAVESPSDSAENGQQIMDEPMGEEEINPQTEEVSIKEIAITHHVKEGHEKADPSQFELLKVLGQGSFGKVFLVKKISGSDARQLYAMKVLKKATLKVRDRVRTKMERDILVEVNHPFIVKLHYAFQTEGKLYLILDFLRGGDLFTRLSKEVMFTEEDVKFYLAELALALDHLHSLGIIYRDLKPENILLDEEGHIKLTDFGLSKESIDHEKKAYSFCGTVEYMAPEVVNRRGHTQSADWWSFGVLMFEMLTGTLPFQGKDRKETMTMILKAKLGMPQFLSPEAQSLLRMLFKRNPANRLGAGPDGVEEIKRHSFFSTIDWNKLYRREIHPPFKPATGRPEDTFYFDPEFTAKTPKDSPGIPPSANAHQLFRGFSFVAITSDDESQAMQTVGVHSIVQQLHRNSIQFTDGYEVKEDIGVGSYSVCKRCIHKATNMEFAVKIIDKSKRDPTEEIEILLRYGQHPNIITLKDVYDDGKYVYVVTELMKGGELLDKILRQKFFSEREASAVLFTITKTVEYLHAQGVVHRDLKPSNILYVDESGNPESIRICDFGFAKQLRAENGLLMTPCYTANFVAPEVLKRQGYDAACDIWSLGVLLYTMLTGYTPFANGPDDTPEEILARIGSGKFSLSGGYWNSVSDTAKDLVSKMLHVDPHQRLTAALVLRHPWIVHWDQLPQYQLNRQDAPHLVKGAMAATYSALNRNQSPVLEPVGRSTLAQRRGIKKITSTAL
row,SMILES,ΔTm [°C]
1,CN1CCc2[nH]c(=S)c(C#N)c(-c3cccs3)c2C1,0.7
2,CC(C)[C@H](CO)Nc1nc(Nc2cc(N)cc(Cl)c2)c2ncn(C(C)C)c2n1 [AMINOPURVALANOL],-0.1
3,Brc1c(Br)c(Br)c2[nH]nnc2c1Br [TETRABROMOBENZOTRIAZOLE],1.5
4,Cn1cnc2c(NCc3ccccc3)nc(NCCO)nc21 [OLOMOUCINE],0.1

# Biological target: Serine/threonine-protein kinase PAK 4 (Homo sapiens) (UniProt O96013)
# Sequence (O96013 whole entry, looked up): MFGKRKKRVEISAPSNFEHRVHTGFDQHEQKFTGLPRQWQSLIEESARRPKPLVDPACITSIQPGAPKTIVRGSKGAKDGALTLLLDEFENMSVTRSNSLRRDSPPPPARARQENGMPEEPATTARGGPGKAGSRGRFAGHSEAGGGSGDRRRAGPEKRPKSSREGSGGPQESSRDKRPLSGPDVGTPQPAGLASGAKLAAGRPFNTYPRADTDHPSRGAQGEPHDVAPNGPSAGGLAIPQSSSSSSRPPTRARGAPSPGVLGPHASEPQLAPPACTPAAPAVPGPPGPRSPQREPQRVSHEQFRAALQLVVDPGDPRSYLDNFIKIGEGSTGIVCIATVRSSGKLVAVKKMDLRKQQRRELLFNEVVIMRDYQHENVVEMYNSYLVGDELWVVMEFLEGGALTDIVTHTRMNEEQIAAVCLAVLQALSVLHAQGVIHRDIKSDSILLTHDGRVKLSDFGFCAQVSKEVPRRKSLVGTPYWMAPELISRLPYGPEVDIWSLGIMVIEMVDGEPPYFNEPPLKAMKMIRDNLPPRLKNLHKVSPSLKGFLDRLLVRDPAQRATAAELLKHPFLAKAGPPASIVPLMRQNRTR
row,SMILES,ΔTm [°C]
1,CN1CCc2[nH]c(=S)c(C#N)c(-c3cccs3)c2C1,-0.4
2,CC(C)[C@H](CO)Nc1nc(Nc2cc(N)cc(Cl)c2)c2ncn(C(C)C)c2n1 [AMINOPURVALANOL],-0.1
3,Brc1c(Br)c(Br)c2[nH]nnc2c1Br [TETRABROMOBENZOTRIAZOLE],-0.1
4,Cn1cnc2c(NCc3ccccc3)nc(NCCO)nc21 [OLOMOUCINE],0.4
5,O=C1Cc2c([nH]c3ccc(Br)cc23)-c2ccccc2N1 [KENPAULLONE],3.4
6,O=C1Nc2ccccc2/C1=C\c1ccc[nH]1,1.2

# Biological target: T2, Lymphokine-activated killer T-cell-originated protein kinase (Homo sapiens) (UniProt Q96KB5)
# T2 sequence (whole entry): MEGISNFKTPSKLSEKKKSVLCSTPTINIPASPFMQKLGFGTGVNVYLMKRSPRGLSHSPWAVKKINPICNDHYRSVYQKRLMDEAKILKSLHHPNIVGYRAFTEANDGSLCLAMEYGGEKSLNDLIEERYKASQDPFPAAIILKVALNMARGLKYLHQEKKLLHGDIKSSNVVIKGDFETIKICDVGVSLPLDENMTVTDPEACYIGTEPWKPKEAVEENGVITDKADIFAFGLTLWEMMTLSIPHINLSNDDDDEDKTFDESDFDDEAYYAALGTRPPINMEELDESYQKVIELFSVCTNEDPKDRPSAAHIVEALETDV
row,SMILES,ΔTm [°C]
1,Brc1c(Br)c(Br)c2[nH]nnc2c1Br [TETRABROMOBENZOTRIAZOLE],-0.3
2,Cn1cnc2c(NCc3ccccc3)nc(NCCO)nc21 [OLOMOUCINE],0.4
3,O=C1Cc2c([nH]c3ccc(Br)cc23)-c2ccccc2N1 [KENPAULLONE],-2
4,O=C1Nc2ccccc2/C1=C\c1ccc[nH]1,-0.5

# Biological target: Serine/threonine-protein kinase pim-3 (Homo sapiens) (UniProt Q86V86)
row,SMILES,ΔTm [°C]
1,CN1CCc2[nH]c(=S)c(C#N)c(-c3cccs3)c2C1,4.2
2,CC(C)[C@H](CO)Nc1nc(Nc2cc(N)cc(Cl)c2)c2ncn(C(C)C)c2n1 [AMINOPURVALANOL],6.7
3,Brc1c(Br)c(Br)c2[nH]nnc2c1Br [TETRABROMOBENZOTRIAZOLE],4.9
4,Cn1cnc2c(NCc3ccccc3)nc(NCCO)nc21 [OLOMOUCINE],-0.1
5,O=C1Cc2c([nH]c3ccc(Br)cc23)-c2ccccc2N1 [KENPAULLONE],4.6
6,O=C1Nc2ccccc2/C1=C\c1ccc[nH]1,2.1

# Biological target: Serine/threonine-protein kinase 16 (Homo sapiens) (UniProt O75716)
# Sequence (O75716 whole entry): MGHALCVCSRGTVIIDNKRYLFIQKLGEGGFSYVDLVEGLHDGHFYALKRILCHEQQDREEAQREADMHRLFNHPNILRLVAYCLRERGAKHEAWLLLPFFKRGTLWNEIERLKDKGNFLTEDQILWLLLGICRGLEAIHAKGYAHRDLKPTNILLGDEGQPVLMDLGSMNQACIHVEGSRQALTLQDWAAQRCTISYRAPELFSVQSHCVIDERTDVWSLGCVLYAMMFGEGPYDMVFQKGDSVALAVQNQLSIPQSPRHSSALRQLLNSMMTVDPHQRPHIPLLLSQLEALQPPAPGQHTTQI
row,SMILES,ΔTm [°C]
1,CN1CCc2[nH]c(=S)c(C#N)c(-c3cccs3)c2C1,0.5
2,CC(C)[C@H](CO)Nc1nc(Nc2cc(N)cc(Cl)c2)c2ncn(C(C)C)c2n1 [AMINOPURVALANOL],0.2
3,Brc1c(Br)c(Br)c2[nH]nnc2c1Br [TETRABROMOBENZOTRIAZOLE],1.1
4,Cn1cnc2c(NCc3ccccc3)nc(NCCO)nc21 [OLOMOUCINE],0.7
5,O=C1Cc2c([nH]c3ccc(Br)cc23)-c2ccccc2N1 [KENPAULLONE],0.7
6,O=C1Nc2ccccc2/C1=C\c1ccc[nH]1,4.3

# Biological target: Casein kinase I isoform gamma-2 (Homo sapiens) (UniProt P78368)
# Sequence (P78368 whole entry, looked up, canonical isoform): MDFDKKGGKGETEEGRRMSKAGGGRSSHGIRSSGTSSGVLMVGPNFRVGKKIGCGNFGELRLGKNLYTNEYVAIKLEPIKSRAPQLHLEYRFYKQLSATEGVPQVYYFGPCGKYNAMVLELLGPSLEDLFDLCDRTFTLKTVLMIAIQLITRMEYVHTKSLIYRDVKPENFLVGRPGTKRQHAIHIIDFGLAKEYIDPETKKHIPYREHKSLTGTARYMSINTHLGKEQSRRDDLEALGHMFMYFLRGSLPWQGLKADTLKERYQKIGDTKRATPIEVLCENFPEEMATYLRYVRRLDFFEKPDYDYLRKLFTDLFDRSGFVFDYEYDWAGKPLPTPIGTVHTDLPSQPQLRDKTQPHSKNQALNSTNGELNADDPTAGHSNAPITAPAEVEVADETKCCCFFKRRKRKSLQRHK
row,SMILES,ΔTm [°C]
1,CN1CCc2[nH]c(=S)c(C#N)c(-c3cccs3)c2C1,5.2
2,CC(C)[C@H](CO)Nc1nc(Nc2cc(N)cc(Cl)c2)c2ncn(C(C)C)c2n1 [AMINOPURVALANOL],1.8
3,Brc1c(Br)c(Br)c2[nH]nnc2c1Br [TETRABROMOBENZOTRIAZOLE],0.3
4,Cn1cnc2c(NCc3ccccc3)nc(NCCO)nc21 [OLOMOUCINE],0.5
5,O=C1Cc2c([nH]c3ccc(Br)cc23)-c2ccccc2N1 [KENPAULLONE],0
6,O=C1Nc2ccccc2/C1=C\c1ccc[nH]1,1.6

# Biological target: Cyclin-dependent kinase 2 (Homo sapiens, UniProt P24941)
row,SMILES,ΔTm [°C]
1,CN1CCc2[nH]c(=S)c(C#N)c(-c3cccs3)c2C1,0
2,O=C1Cc2c([nH]c3ccc(Br)cc23)-c2ccccc2N1 [KENPAULLONE],3.6
3,O=C1Nc2ccccc2/C1=C\c1ccc[nH]1,3.4

# Biological target: T3, Serine/threonine-protein kinase 4 (Homo sapiens) (UniProt Q13043)
# T3 sequence (whole entry): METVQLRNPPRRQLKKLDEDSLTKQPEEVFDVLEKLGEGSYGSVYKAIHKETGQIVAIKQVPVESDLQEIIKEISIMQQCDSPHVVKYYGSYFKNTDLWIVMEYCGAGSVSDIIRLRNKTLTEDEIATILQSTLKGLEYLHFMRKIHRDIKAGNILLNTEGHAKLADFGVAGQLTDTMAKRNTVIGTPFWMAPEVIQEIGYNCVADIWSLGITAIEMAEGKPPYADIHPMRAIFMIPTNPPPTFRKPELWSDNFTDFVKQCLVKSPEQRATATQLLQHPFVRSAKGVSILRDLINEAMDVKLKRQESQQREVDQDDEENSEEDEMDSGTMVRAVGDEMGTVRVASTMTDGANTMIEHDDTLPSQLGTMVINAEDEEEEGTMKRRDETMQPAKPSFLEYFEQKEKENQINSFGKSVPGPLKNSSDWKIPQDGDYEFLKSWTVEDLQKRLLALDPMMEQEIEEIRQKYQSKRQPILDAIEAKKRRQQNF
row,SMILES,ΔTm [°C]
1,Brc1c(Br)c(Br)c2[nH]nnc2c1Br [TETRABROMOBENZOTRIAZOLE],3.3
2,Cn1cnc2c(NCc3ccccc3)nc(NCCO)nc21 [OLOMOUCINE],0.3
3,O=C1Cc2c([nH]c3ccc(Br)cc23)-c2ccccc2N1 [KENPAULLONE],4.9
4,O=C1Nc2ccccc2/C1=C\c1ccc[nH]1,7.7
